Source: article PMC12737022, “Evaluations of Sex Differences in Dosimetry in Rats Following Perfluorohexanesulfonamide (PFHxSA) Oral Exposure” (Toxics, 2025)

Tests used:
[1] = test system: rats; conditions: cited from earlier work
[2] = test system: Sprague Dawley rats; assay: Plasma thyroid hormone quantitation after 5-day oral PFHxSA exposure; format: in vivo, rat
From the text: The plasma and liver samples for this investigation were provided by Mutlu et al.. The study design, including detailed descriptions of animal handling, procedures for dosing, clinical observations, termination, and collection of tissues, is reported elsewhere and is consistent with the ARRIVE guidelines. Briefly, male and female Sprague Dawley (SD) rats (Crl:CD(SD)) (n = 48/sex, 96 total) were purchased from Charles River Laboratory (Raleigh, NC, USA) and allowed to acclimate for ≥5 days before initial dosing. Rats were 8–10 weeks old at the time of exposure. PFHxSA dosing solutions in corn oil were prepared on Day 0 and used over the course of the study. Rats of both sexes (n = 5/sex, dose, and time point, plus eight vehicle controls per sex) were dosed by oral gavage (5 mL/kg body weight) once daily for five days. […] The formulation concentrations decreased from 100 mg/kg/day at half-log10 intervals until the lowest dose level, which was a full log10 interval below the next higher dose, giving eight dose levels (0.01 to 100 mg/kg/day or 0.025 µmol/kg/day to 250 µmol/kg/day) in addition to vehicle controls. Doses were administered in randomized order within ± 1 h on each day of dosing. […] Rats were euthanized 24 h after the last dose. Blood was collected via cardiac puncture with tripotassium ethylene diamine tetraacetic acid (K3EDTA) as an anti-coagulant and centrifuged to collect cell-free plasma. Liver was collected and flash-frozen in liquid nitrogen. Liver, plasma, and dosing formulation samples were frozen at the USEPA Center for Computational Toxicology and Exposure (CCTE), Durham, NC, USA. Tissue samples (plasma and liver, n = 96 each) were stored at ≤−70 °C prior to extraction; dosing formulation samples (n = 9) were stored at −20 °C.
Thyroid hormones (TH) triiodothyronine (T3), reverse triiodothyronine (rT3), and thyroxine (T4) (SI Table S1) were extracted from plasma spiked with ^13C-labeled TH in batches of up to 96 samples, along with an MB, CCV, and LCS for QC. Gibco (Billings, MT, USA) Dulbecco’s Phosphate-Buffered Saline was used as the control matrix. See SI Text S3 for the extraction procedure.
Samples were analyzed as previously described in O’Shaughnessy et al.. Isotope dilution targeted LC/MS/MS was performed using a Sciex (Framingham, MA, USA) 6500+ QTRAP liquid chromatography/linear ion trap mass spectrometer system operated in positive electrospray ionization (ESI) mode with multiple reaction monitoring (MRM) scanning. A Restek (Bellefonte, PA, USA) Raptor Biphenyl column (100 mm × 2.1 mm, 2.6 µm) was used for chromatographic separation with a flow rate of 0.3 mL/min and a 50 °C column temperature. Gradient elution (see SI Table S2) was obtained with 0.1% formic acid in water (H2O) (mobile phase A) and 0.1% formic acid in methanol (MeOH) (mobile phase B). Detection limits for T3, rT3, and T4 were 0.04 ng/mL in plasma. […]
Acceptance criterion for the ICV was a recovery of ± 20% of the nominal concentration of the ICV as quantitated from the calibration curve. Method blank, CCV, and LCS were injected at the beginning of every extraction batch and reinjected after every 30 samples to confirm the validity of the calibration curve and sample quantitation. If fewer than 30 samples were injected, all samples were bracketed by injections of the CCV at the beginning and end of the analysis batch.
Acceptance criteria for the CCV and LCS were ± 30% of nominal concentration. Method blanks were acceptable with PFHxSA signal < 0.5x the LOQ. Samples were injected in order of increasing dose.
Quantitation of PFHxS in liver and plasma was performed using the same QC criteria and extraction methods as PFHxSA, only the internal standard was supplied in the form of a Wellington Laboratories isotopically labeled MPFAC-24ES PFAS mixture containing 13C3-PFHxS. Samples were quantitated against PFHxS matrix-matched calibration curves containing a minimum of 5 points spanning the range […]

NS(=O)(=O)C(F)(F)C(F)(F)C(F)(F)C(F)(F)C(F)(F)C(F)(F)F [PFHxSA, Perfluorohexanesulfonamide]
Doses at which transcriptional pathway changes are observed in multiple tissues [1]: less than 1 mg/kg/day | Benchmark dose for relative liver weight changes ([1]; rats, ref Auerbach et al. [40]): 16.25 mg/kg/day | Exposures at which mortality was observed in a 5-day study ([1]; ref Auerbach et al. [40]): above 100 mg/kg/d | rT3 in female rat plasma ([2]; all doses): not detected | rT3 in male rat plasma ([2]; detected sporadically): no dose-responsive effect | Dose with plasma T4 statistically different from controls ([2]; female rats): 100 mg/kg/day | Dose with plasma T3 statistically different from controls ([2]; male and female rats): 100 mg/kg/day | Dose from which plasma T4 was significantly decreased ([2]; male rats): 10 mg/kg/day | Exposures at which changes in THs occur ([2]; rats): ≥ 10 mg/kg/day
